In patent US10087234B2, “Mimetic peptides” (LES HOPITAUX UNIVERSITAIRES DE GENEVE, priority 2012, dated 2018):
Bridges are numbered along the chain shown (N, C = ends). Where no end group is shown, it is not given here. [ ]: non-standard residue; d: D form. R8 = C=CCCCCCC[C@@](C)(N)C(=O)O; S5 = C=CCCC[C@](C)(N)C(=O)O

Tests used:
anti-ApoA-I antibodies [1] = assay: ELISA immunoreactivity of ApoA-I digestion fragments (epitope identification); format: binding, human; details: sera from 3 patients with high and 3 with low autoantibody titers
Method: To identify specific endogenous epitopes of ApoA-I, the purified ApoA-I was submitted to enzymatic digestion, hydrolyzing the protein specifically at the carboxyl side of lysine or at the carboxylic side of arginine, followed by peptide separation and purification by reversed phase-high performance liquid chromatography and peptide identification by mass spectrometry. The immunoreactivity to the digested protein and each fraction were tested by ELISA using serum samples from 3 patients with high titers and serum samples from 3 patients with low titers of autoantibodies.
For ApoA-I digested at lysine residues, the enzyme Endoproteinase Lys-C(Roche Applied Science) was used (amount of enzyme 1:50 was 1/50 of protein by weight, incubation for 18 h at 37° C., pH 8.5). ApoA-I digestion with Lys-C allowed identification of fractions 70 and 71 (FIG. 8) containing a previously unreported immunoreactive peptide epitope of amino acid sequence corresponding to amino acid residues 141-182 relative to mature amino acid sequence of ApoA-I of SEQ ID NO: 1, comprising the region derived from helix D of SEQ ID NO: 5 with a deletion of the last 2 amino acids of SEQ ID NO: 5. The amino acid sequence of this epitope is SEQ ID NO: 21.
In order to generate peptide fragments cleaved at arginine residues the conventional way would to use the enzyme ArgC. However, ArgC enzyme has a recognized lack of specificity, generating tryptic peptides, which abolished the immunoreactivity. […] This approach allowed identification of fractions 74 and 80 (FIG. 9) containing another immunoreactive peptide epitope of amino acid sequence corresponding to amino acid residues 216-243 relative to mature amino acid sequence of ApoA-I of SEQ ID NO: 1, comprising the region 1 derived from helix F of SEQ ID NO: 8. The amino acid sequence of this epitope is SEQ ID NO: 25.

anti-ApoA-I antibodies [2] = assay: Competition ELISA on plates coated with intact ApoA-I; format: binding, human
Method: Competition ELISA experiments using selected synthetic peptides were also carried out. Synthetic peptides (dissolved in PBS with 2% bovine serum albumin (BSA) at different concentrations were co-incubated with patient sera containing high levels of anti-ApoA-I IgG for 2 h at room temperature, before being added to the wells coated with purified, human-derived delipidated ApoA-I as described above, prior to development of the assay as described above.
In competition ELISA assays, serum from a patient known to be positive for anti-ApoA-I antibodies was preincubated with peptide F3L1 at different concentrations as indicated in FIG. 3 and then added to ELISA plates coated with intact ApoA-I, with the subsequent assay steps carried out according to the standard protocol.

[3] = test system: Human monocyte-derived macrophages (HMDMs); assay: Anti-ApoA-I IgG-related pro-inflammatory response (TNF-α production); format: cell-based
Method: Human monocyte-derived macrophages (HMDMs) were obtained by treating human monocytes with interferon (IFN)-γ for 24 hours as previously described (Pagano et al, 2012, J Intern Med). HMDMs were then stimulated in 96-well trays for 24 h with increasing concentrations (5-40 μg/mL) of either polyclonal anti-human ApoA-I (Academy Bio-Medical Company, Houston, Tex., USA) or control antibody (Meridian Life Science, Saco, Me., USA), with IgG from pool+ or pool− (500 μg/mL). In this model, LPS-free anti-ApoA-I IgG has been show to promote the production of TNF-α and IL-6 in a dose dependent manner, with an optimal stimulation at 40 μg/ml (Pagano et al, 2012, J Intern Med).
For competition inhibition experiments, synthetic peptides were co-incubated with 40 μg/ml polyclonal anti-ApoA-I IgG for 2 h at room temperature prior to addition to HMDMs in 96-well plates, and followed by the assessment of IL-6 and TNF-α levels in cell supernatants using Luminex MAP™ Technology. Experiments were performed with blood from three different donors.

[4] = test system: Neonatal rat ventricular cardiomyocytes (NRVC); assay: Anti-ApoA-I IgG-related chronotropic response (beating frequency); format: cell-based
Text: Neonatal rat ventricular cardiomyocytes (NRVC) were isolated from ventricles of 1-2 day-old Wistar rats by digestion with low trypsin-EDTA and type 2 collagenase. Animals were killed by decapitation without any anesthesia, analgesia, or administration of neuromuscular blocking agents, in conformity with the Guide for the Care and Use of Laboratory Animals published by the NIH (publication 85-23) and with the authorization (1012/3134/0-R) of the local county veterinary office. Freshly isolated cells were seeded in plastic flasks to allow selective adhesion of cardiac fibroblasts. Thereafter cardiomyocytes were decanted from the flasks and distributed into laminin-coated 90 mm petri dishes.
After 1-2 days' culture, cells were incubated at time intervals with the appropriate concentration of monoclonal anti-ApoA-I IgG (Abcam, Nottingham, UK) or vehicle in serum-free DMEM. The beating frequency of spontaneously contracting small cell monolayers was determined immediately at the end of the pre-incubation period (t=0) and at different times after the addition of various substances. Frequency determinations were performed by a technician (unaware of the experimental conditions) using a light microscope to count the number of contractions per time unit in three different locations of the dish. The regularity of the cell contractions has been previously assessed by monitoring cytosolic-free calcium fluctuations with fluorescent calcium probes (Maturana et al, 2009, Endocrinology 150:3726-3734). […] Competition inhibition experiments with synthetic peptides were performed using the same experimental conditions. Synthetic peptides were co-incubated with 10 μg/ml monoclonal anti-ApoA-I (Abcam, Nottingham, UK) for 2 h at room temperature, before being added to NRVC in dishes, with beating frequency determined as described above.

[5] = CD spectroscopy to determine helical content; format: physicochemical; details: troughs at 208 and 222 nm, in comparison to non-stapled control peptide F3
Method: Circular dichroism (CD) spectra from 185 to 240 nm were collected on a Jasco J-815 spectropolarimeter at 20° C. A typical sample was prepared by dissolving lyophilized peptide in 25% trifluoroethanol in water to obtain a concentration of 2 mM, then diluting this solution 20-fold in water and loading in a quartz cuvette (0.2 cm path length). Baseline CD spectra for 1.25% TFE in water was subtracted from the experimental spectra. Data were normalized by calculating the mean residue ellipticity at wavelength 222 nm, (θ)mrw, λ.

[6] = serum from 3 anti-ApoA-I positive patients, FIG. 5

GLLPVLESFKVSFLSALEEYTKKLNT (not fully specified (bridges)) [SEQ ID NO: 9, Region 2 derived from helix F]
immunoreactivity to anti-ApoA-I antibodies (anti-ApoA-I antibodies [1]): more immunoreactive

GLLPVLESFKVSFLSALEEYTKKLNT (Ac-GLLPVLESFKVSFLSALEEYTKKLNT-NH2) [F3, reference compound]
inhibition of binding of patient serum IgG to intact ApoA-I (anti-ApoA-I antibodies [2]; [6]): effect observed

Ac-GLLPVLESFKVSFLSALEXaaYTKXaaLNT-NH2 (Ac-GLLPVLESFKVSFLSALEEYTKKLNT-NH2; lactam 19-23; SMILES CC(=O)NCC(=O)N[C@@H](CC(C)C)C(=O)N[C@@H](CC(C)C)C(=O)N1CCC[C@H]1C(=O)N[C@H](C(=O)N[C@@H](CC(C)C)C(=O)N[C@@H](CCC(=O)O)C(=O)N[C@@H](CO)C(=O)N[C@@H](Cc1ccccc1)C(=O)N[C@@H](CCCCN)C(=O)N[C@H](C(=O)N[C@@H](CO)C(=O)N[C@@H](Cc1ccccc1)C(=O)N[C@@H](CC(C)C)C(=O)N[C@@H](CO)C(=O)N[C@@H](C)C(=O)N[C@@H](CC(C)C)C(=O)N[C@@H](CCC(=O)O)C(=O)N[C@H]1CCC(=O)NCCCC[C@@H](C(=O)N[C@@H](CC(C)C)C(=O)N[C@@H](CC(N)=O)C(=O)N[C@H](C(N)=O)[C@@H](C)O)NC(=O)[C@H](CCCCN)NC(=O)[C@H]([C@@H](C)O)NC(=O)[C@H](Cc2ccc(O)cc2)NC1=O)C(C)C)C(C)C) [F3L1]
inhibition of binding of patient serum IgG to intact ApoA-I (anti-ApoA-I antibodies [2]; [6]): competes effectively | inhibition of binding of patient serum IgG to intact ApoA-I (anti-ApoA-I antibodies [2]; serum from one anti-ApoA-I positive patient, FIG. 4): capable of competitively inhibiting | effect on TNF-α production induced by anti-ApoA-I IgG ([3]; polyclonal anti-ApoA-I IgG 40 μg/ml pre-incubated with peptide 2 h, FIG. 6A): abrogated | effect on TNF-α production induced by pool of IgG from anti-ApoA-I positive patients ([3]; pooled patient IgG pre-incubated with peptide, FIG. 6B): same effect | effect on anti-ApoA-I IgG related chronotropic response ([4]; antibody pre-incubated with peptide 75 μg/ml for 2 h, FIG. 7): fully abrogated | basal frequency contraction rate ([4]; peptide added alone): did not alter | contraction rate in the presence of 10 nM aldosterone ([4]; peptide added alone, 10 nM aldosterone): did not alter | alpha-helical content [5]: increased alpha-helical content

EEMRDRARAHVDALRTHLAPYSDELRQRLAARLEALKEN (Region derived from Helix D of ApoA-I) [SEQ ID NO: 5]
immunoreactivity to anti-ApoA-I antibodies (anti-ApoA-I antibodies [1]): more immunoreactive

Ac-VLESFKVSFLSALEXaaYTKXaaLNT-NH2 (Ac-VLESFKVSFLSALEEYTKKLNT-NH2; lactam 15-19; SMILES CC(=O)N[C@H](C(=O)N[C@@H](CC(C)C)C(=O)N[C@@H](CCC(=O)O)C(=O)N[C@@H](CO)C(=O)N[C@@H](Cc1ccccc1)C(=O)N[C@@H](CCCCN)C(=O)N[C@H](C(=O)N[C@@H](CO)C(=O)N[C@@H](Cc1ccccc1)C(=O)N[C@@H](CC(C)C)C(=O)N[C@@H](CO)C(=O)N[C@@H](C)C(=O)N[C@@H](CC(C)C)C(=O)N[C@@H](CCC(=O)O)C(=O)N[C@H]1CCC(=O)NCCCC[C@@H](C(=O)N[C@@H](CC(C)C)C(=O)N[C@@H](CC(N)=O)C(=O)N[C@H](C(N)=O)[C@@H](C)O)NC(=O)[C@H](CCCCN)NC(=O)[C@H]([C@@H](C)O)NC(=O)[C@H](Cc2ccc(O)cc2)NC1=O)C(C)C)C(C)C) [F4L1]
alpha-helical content [5]: increased alpha-helical content

QGLLPVLESFKVSFLSALEEYTKKLNTQ (F5) [SEQ ID NO: 25]
immunoreactivity to anti-ApoA-I antibodies (anti-ApoA-I antibodies [1]): immunoreactive

Ac-GLLPVLESFKVSFLSXaaLEEYTKXaaLNT-NH2 (Ac-GLLPVLESFKVSFLS[R8]LEEYTK[S5]LNT-NH2; staple 16-23) [F3S2A]
alpha-helical content [5]: increased alpha-helical content

LSPLGEEMRDRARAHVDALRTHLAPYSDELRQRLAARLEALK (D2) [SEQ ID NO: 21]
immunoreactivity to anti-ApoA-I antibodies (anti-ApoA-I antibodies [1]): immunoreactive

VLESFKVSFLSALEEYTKKLNT (not fully specified (bridges)) [SEQ ID NO: 8, Region 1 derived from helix F]
immunoreactivity to anti-ApoA-I antibodies (anti-ApoA-I antibodies [1]): more immunoreactive

amino acid residues 189-215 of mature ApoA-1: peptide corresponding to amino acid residues 189-215 of mature ApoA-1 of SEQ ID NO: 1, containing helix E (LAEYHAKATEHLSTLSEKAKPALEDLR; UniProt P02647 213-239, looked up, fragment)
immunoreactivity to anti-ApoA-I antibodies (anti-ApoA-I antibodies [1]): less immunoreactive

Ac-KELYLLKFTVESKVGSTELPLNFSLA-NH2 [scrambled F3, reference compound]
inhibition of binding of patient serum IgG to intact ApoA-I (anti-ApoA-I antibodies [2]; [6]): absence of dose-dependent inhibition

Ac-VLESFKVSXaaLSALEEXaaTKKLNT-NH2 (Ac-VLESFKVS[R8]LSALEE[S5]TKKLNT-NH2; staple 9-16) [F4S2B]
alpha-helical content [5]: increased alpha-helical content
